{
  "source": "patent US20240293367A1",
  "about": "“METHODS OF TREATING DISORDERS WITH A […]” (Cybin IRL Limited, priority 2023, published 2024)",
  "key": {"[1]": {"settings": "female, rat, in vivo, 40 mg/kg"}, "[2]": {"experiment": "28-day (4-week GLP) toxicology study in dogs, toxicokinetic exposure", "settings": "both sexes, dog, in vivo, toxicokinetic data, 28-day toxicology study in dogs, combined male and female", "description": "The exposure limits will be applied on mean values within a cohort."}, "[3]": {"experiment": "Safety and tolerability (adverse events) in the Phase I/IIa study"}, "[4]": {"settings": "all cohorts, psilocin-d10 n = 35"}},
  "note": "Like-named read-outs stand apart in the source and are kept apart here.",
  "data": [
    {"compound": "[2H]C([2H])([2H])N(C([2H])([2H])[2H])C([2H])([2H])C([2H])([2H])c1c[nH]c2cccc(O)c12", "note": "[psilocin-d10, 3-(2-(bis(methyl-d3)amino)ethyl-1,1,2,2-d4)-1H-indol-4-ol]", "values": [
      {"measurement": "AUC(0-t)", "setting": "[1]", "value": 3630, "unit": "ng·h/mL"},
      {"measurement": "Cmax", "setting": "[1]", "value": 343, "unit": "ng/mL"},
      {"measurement": "AUC(0-t)", "setting": "[2]; read-out: predefined maximum exposure level, AUC0-24", "value": 123, "unit": "ng·h/mL"},
      {"measurement": "Cmax", "setting": "[2]; read-out: predefined maximum exposure level, Cmax", "value": 63, "unit": "ng/mL"},
      {"measurement": "nausea at least possibly related to study treatment", "setting": "[3]; 8 mg", "value": "2 out of 4"},
      {"measurement": "nausea at least possibly related to study treatment", "setting": "[3]; 12 mg", "value": "6 out of 24"},
      {"measurement": "nausea at least possibly related to study treatment", "setting": "[3]; 16 mg", "value": "3 out of 12"},
      {"measurement": "headache at least possibly related to study treatment", "setting": "[3]; Cohort 3", "value": 1, "unit": "subject"},
      {"measurement": "headache at least possibly related to study treatment", "setting": "[3]; Cohort 4", "value": 1, "unit": "subject"},
      {"measurement": "vomiting at least possibly related to study treatment", "setting": "[3]; Cohort 4", "value": 1, "unit": "subject"},
      {"measurement": "vomiting at least possibly related to study treatment", "setting": "[3]; Cohort 6", "value": 3, "unit": "subjects"},
      {"measurement": "discontinuation due to AEs", "setting": "[3]; all cohorts", "value": "No participants discontinued due to AEs"},
      {"measurement": "Drug-related, treatment-emergent adverse events: At least one AE", "setting": "[3]; all cohorts incl. healthy volunteers, psilocin-d10 n = 35", "value": "21 (60.0) n (%)"},
      {"measurement": "Drug-related TEAE: Affect lability", "setting": "[3]; [4]", "value": "1 (2.9) n (%)"},
      {"measurement": "Drug-related TEAE: Anxiety", "setting": "[3]; [4]", "value": "2 (5.7) n (%)"},
      {"measurement": "Drug-related TEAE: Blood pressure increased", "setting": "[3]; [4]", "value": "5 (14.3) n (%)"},
      {"measurement": "Drug-related TEAE: Confusional state", "setting": "[3]; [4]", "value": "1 (2.9) n (%)"},
      {"measurement": "Drug-related TEAE: Dizziness", "setting": "[3]; [4]", "value": "1 (2.9) n (%)"},
      {"measurement": "Drug-related TEAE: Eructation", "setting": "[3]; [4]", "value": "1 (2.9) n (%)"},
      {"measurement": "Drug-related TEAE: Headache", "setting": "[3]; [4]", "value": "3 (8.6) n (%)"},
      {"measurement": "Drug-related TEAE: Nasal congestion", "setting": "[3]; [4]", "value": "1 (2.9) n (%)"},
      {"measurement": "Drug-related TEAE: Nausea", "setting": "[3]; [4]", "value": "6 (17.1) n (%)"},
      {"measurement": "Drug-related TEAE: Panic Attack", "setting": "[3]; [4]", "value": "1 (2.9) n (%)"},
      {"measurement": "Drug-related TEAE: Tachycardia", "setting": "[3]; [4]", "value": "1 (2.9) n (%)"},
      {"measurement": "Drug-related TEAE: Vomiting", "setting": "[3]; [4]", "value": "2 (5.7) n (%)"},
      {"measurement": "tolerability", "setting": "[3]; dosage levels up to 16 mg, 8 healthy volunteers and 38 participants with MDD", "value": "well tolerated without significant adverse effects"}
    ]}
  ]
}
